Source: patent US9737510B2, “Indazole compounds and a process for the preparation thereof” (Council of Scientific & Industrial Research, priority 2013, dated 2017)
Converted amounts (≈) assume the structure as drawn.

What was measured:
MIN6 cells = test: Insulinotropic activity: insulin secretion from MIN6 cells (ELISA based assay); type: cell-based, mouse; settings: MIN6 cells, standard error in bracket
Procedure: Insulinotropic activity of the NDS100178 and NDS100179 was measured by a well-optimized ELISA based Assay (Shantani Protocol #5205) described below.
Materials • MIN6Cell (source: National Center for Cell Sciences, Pune) • Mouse Insulin ELISA kit (Mercodia, 10-1247-01) • Plate Shaker (MixMatefromEppendorf) • HEPES Balanced Krebs-Ringer bicarbonate buffer (components as follows)
Method • i. Seed proliferating culture of MIN-6 cells into a 6 well plate with almost half the confluency two days before the experiment. • ii. One the day of Insulin induction experiment, the cells should become almost confluent and are in good condition. • iii. On the day of experiment, first prepare 1×KRB-HEPES buffer with 0.1% BSA (for rinse) and without BSA (for equilibration and insulin induction) as described in the materials. • iv. Prepare equilibration buffer: 1×KRB-HEPES buffer without BSA containing 3.3 mM glucose (to bring down the glucose level of all cells to the same level). For example, add 66 ul 1 M glucose stock solution to 20 ml KRB-HEPES buffer without BSA. • v. Prepare the stimulating buffer (insulin induction): 1×KRB-HEPES buffer without BSA containing the defined glucose level (in most cases, it will be 16.7 mM glucose) and the desired concentration of molecule. • vi. Pre warm all the buffers to 37° C. in the water bath (at 15 minutes). • vii. Remove media from all wells, rinse each well twice with 2 ml KRB-HEPES buffer containing 0.1% BSA. • viii. Add 2 ml of equilibration buffer in each well and incubate at 37° C. for half an hour. • ix. After the incubation add 2 ml of stimulating buffer in respective wells (properly labelled) and incubate 37° C. for 1 hour. • x. In the meanwhile, turn on the refrigerated centrifuge and set the temperature to 4° C. Take out enzyme conjugate, diluent buffer, Calibrator 0 and stripes needed (for example, two stripes for 8 samples to be run in duplicate) from Mercodia ELISA kit box (store at 4° C.) and warm up them to RT. • xi. […] Centrifuge the tubes at 600 g for 5 min. • xiii. Take out 500 ul in fresh properly labelled precooled tubes. • xiv. Now dilute the samples 1:30 in calibrator 0 i.e. add 3 ul of each sample to 87 ul of Calibrator 0 in 8 different properly labelled 0.5 ml tubes. Mix them well. • xv. Prepare 1× enzyme conjugate buffer, i.e. mix 180 ul enzyme (11×) with 1800 ul diluent buffer for ELISA of two stripes. • xvi. Add 10 ul of each sample (diluted, in duplicate) in the two adjacent wells. Be careful not to touch the bottom. • xvii. Carefully add 100 ul of Enzyme Conjugate buffer (1×) to each well and incubate on a plate shaker (eppendorf MixMate) at 800 rpm for 2 hours at 25° C. • xviii. 45 min before the incubation is over take out wash buffer, substrate TMB and Stop solution. Keep them at RT. • xix. 5 min before the incubation is over prepare 1× wash buffer (21×), i.e. 40 ml distilled water+2 ml (21×) wash buffer in a reservoir. • xx. After the incubation is over, wash each well 7 times with 350 ul wash buffer. Use a multichannel (175 ul). • xxi. After the washing add 200 uL substrate TMB solution in each well. Maintain a proper pace. • xxii. Allow to incubate for 15 min. Set the program on the plate reader, to take absorbance read at 450 nm. Add a 5 sec shake step to allow proper mixing. • xxiii. After incubation immediately add 50 ul Stop solution in each well at same pace and take absorbance read at 450 nm.
Assay conditions were kept same in all the assays. The difference in absorption-value for control experiment (no treatment with molecule) over different days is attributed to cell culture conditions. Other varying conditions are specified in the respective graphs.
[Note: If not mentioned specifically, HG=High Glucose (16.7 mM), LG=Low Glucose (3.3 mM)]

Kinetic solubility = type: physicochemical; settings: kinetic from dmso stock
CYP3A4 = CYP3A4 (Homo sapiens, UniProt P08684); test: CYP3A4 inhibition; type: in vitro ADME
[1] = Metabolic study and intrinsic clearance in MLM; type: in vitro ADME
Metabolic study in HLM = type: in vitro ADME

Chain of CYP3A4 (P08684 whole entry): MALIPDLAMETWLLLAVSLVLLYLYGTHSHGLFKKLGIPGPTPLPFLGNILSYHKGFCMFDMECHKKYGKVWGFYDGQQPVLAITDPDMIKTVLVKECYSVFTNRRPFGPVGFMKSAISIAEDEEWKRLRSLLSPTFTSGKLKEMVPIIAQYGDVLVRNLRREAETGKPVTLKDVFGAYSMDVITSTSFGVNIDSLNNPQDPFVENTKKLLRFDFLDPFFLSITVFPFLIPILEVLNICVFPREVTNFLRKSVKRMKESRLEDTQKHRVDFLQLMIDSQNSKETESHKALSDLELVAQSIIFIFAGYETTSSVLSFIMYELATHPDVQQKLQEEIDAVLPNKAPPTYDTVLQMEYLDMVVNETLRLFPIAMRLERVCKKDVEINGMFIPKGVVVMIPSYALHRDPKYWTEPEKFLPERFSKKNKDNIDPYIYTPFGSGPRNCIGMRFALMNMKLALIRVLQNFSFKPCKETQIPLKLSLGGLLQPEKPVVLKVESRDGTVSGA

Compound | Insulin Secretion (MIN6 cells; compound 0.1 μM) | Insulin Secretion (MIN6 cells; compound 1.0 μM) | Insulin Secretion (MIN6 cells; compound 10.0 μM) | solubility kinetic (Kinetic solubility) [µM] | IC50 (CYP3A4) [µM] | Intrinsic Clearnace MLM [1] | Metabolic Study MLM Mean % PCR* [1] [%] | Metabolic Study HLM Mean % PCR* (Metabolic study in HLM) [%] | CYP3A4 Inhibition (CYP3A4)
Cn1nc(C2=NCCN2)c2ccccc21 [NDS100278, 3-(4,5-dihydro-1H-imidazol-2-yl)-1-methyl-1H-indazole] | 12.43 (1.1) ng/ml | 10.80 (0.2) ng/ml | 13.16 (1.6) ng/ml |  |  |  |  |  | 
Clc1ccc2[nH]nc(C3=NC4CCCCC4N3)c2c1 (stereo not shown) [NDS100281, 5-chloro-3-(3a,4,5,6,7,7a-hexahydro-1H-benzo[d]imidazol-2-yl)-1H-indazole] | 14.73 (0.5) ng/ml | 16.91 (0.1) ng/ml | 20.85 (0.8) ng/ml |  |  |  |  |  | 
CCn1nc(C2=NCCN2)c2cc(Cl)ccc21 [NDS100282, 5-Chloro-3-(4,5-dihydro-1H-imidazol-2-yl)-1-ethyl-1H-indazole] | 13.02 (0.3) ng/ml | 18.73 (1.0) ng/ml | 33.15 (0.7) ng/ml | 202 (≈ 50.1 µg/mL) | > 10 | 56.4 μl/min/mg of protein | 33.27 | 71.71 | 
c1ccc2c(C3=NC4CCCCC4N3)n[nH]c2c1 (stereo not shown) [NDS100279, 3-(3a,4,5,6,7,7a-hexahydro-1H-benzo[d]imidazol-2-yl)-1H-indazole] | 10.45 (1.6) ng/ml | 14.57 (3.0) ng/ml | 21.45 (0.9) ng/ml |  |  |  |  |  | 
c1ccc2c(C3=NCCN3)n[nH]c2c1 [NDS100277, 3-(4,5-dihydro-1H-imidazol-2-yl)-1H-indazole] | 11.87 (0.8) ng/ml | 14.66 (0.4) ng/ml | 20.96 (1.7) ng/ml |  |  |  |  |  | 
Clc1ccc2c(c1)c(C1=NCCN1)nn2Cc1ccccc1 [NDS100283, 1-Benzyl-5-chloro-3-(4,5-dihydro-1H-imidazol-2-yl)-1H-indazole] | 11.35 (1.0) ng/ml | 20.08 (0.8) ng/ml | 50.45 (3.8) ng/ml | 113 (≈ 35.2 µg/mL) |  | 145.5 μl/min/mg of protein | 19.09 | 86.02 | No inhibition
